Results reported in ChEMBL document CHEMBL4602605, “Fluoroquinolones structural and medicinal developments (2013-2018): Where are we now?” (Bioorg Med Chem, 2019).
In brackets after ≈: the same amount, converted by molar mass.

Tested on: Mycobacterium tuberculosis
Assay: Antimicrobial activity against rifampin and isoniazid resistant Mycobacterium tuberculosis Beijing harboring rpoB Ser 531-Leu 315 and katC Ser-Thr mutant incubated for 10 days by microbroth dilution method
Assay type: functional

CCOc1cccc2cc(-c3cc4c(cc3F)c(=O)c(C(=O)O)cn4CC)c(=O)oc12
MIC: 1.5 mg/L (≈ 3.54 µM)

CCn1cc(C(=O)O)c(=O)c2cc(F)c(-c3cc4cc(C(C)(C)C)cc(C(C)(C)C)c4oc3=O)cc21
MIC: 3.1 mg/L (≈ 6.31 µM)

CCn1cc(C(=O)O)c(=O)c2cc(F)c(-c3cc4cc(Br)ccc4oc3=O)cc21
MIC: 6.2 mg/L (≈ 13.5 µM)
